{"source": "paper PMC7524867", "about": "“Identification of Novel Inhibitors of a Plant Group A Protein Phosphatase Type 2C Using a Combined In Silico and Biochemical Approach” (Frontiers in Plant Science, 2020)", "format_in_all_cases": "biochemical", "key": {"ABI1 [1]": {"biological_target": "T1, ABI1 (Arabidopsis thaliana, UniProt P49597)", "T1 sequence (P49597 1-434)": "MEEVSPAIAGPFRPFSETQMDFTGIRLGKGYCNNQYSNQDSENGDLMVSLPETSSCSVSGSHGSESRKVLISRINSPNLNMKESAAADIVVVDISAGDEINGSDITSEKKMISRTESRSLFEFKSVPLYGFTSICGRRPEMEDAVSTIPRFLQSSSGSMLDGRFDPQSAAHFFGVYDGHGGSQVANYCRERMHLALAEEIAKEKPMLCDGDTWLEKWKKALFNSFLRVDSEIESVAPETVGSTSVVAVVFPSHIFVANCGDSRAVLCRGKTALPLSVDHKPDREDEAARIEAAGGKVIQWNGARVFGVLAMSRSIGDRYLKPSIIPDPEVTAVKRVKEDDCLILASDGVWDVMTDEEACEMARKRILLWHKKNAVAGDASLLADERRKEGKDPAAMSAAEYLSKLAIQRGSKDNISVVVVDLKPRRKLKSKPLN", "assay": "Ser/Thr phosphatase assay, single dose […]", "design": "His-ABI1"}, "ABI1 [2]": {"biological_target": "T1, ABI1", "assay": "Ser/Thr phosphatase assay (Promega) with phosphopeptide substrate, six-concentration IC50", "design": "recombinant His- or GST-tagged ABI1"}, "ABI2": {"biological_target": "T2, ABI2 (Arabidopsis thaliana, UniProt O04719)", "T2 construct": "recombinant His- or GST-tagged ABI2", "T2 sequence (O04719 1-423)": "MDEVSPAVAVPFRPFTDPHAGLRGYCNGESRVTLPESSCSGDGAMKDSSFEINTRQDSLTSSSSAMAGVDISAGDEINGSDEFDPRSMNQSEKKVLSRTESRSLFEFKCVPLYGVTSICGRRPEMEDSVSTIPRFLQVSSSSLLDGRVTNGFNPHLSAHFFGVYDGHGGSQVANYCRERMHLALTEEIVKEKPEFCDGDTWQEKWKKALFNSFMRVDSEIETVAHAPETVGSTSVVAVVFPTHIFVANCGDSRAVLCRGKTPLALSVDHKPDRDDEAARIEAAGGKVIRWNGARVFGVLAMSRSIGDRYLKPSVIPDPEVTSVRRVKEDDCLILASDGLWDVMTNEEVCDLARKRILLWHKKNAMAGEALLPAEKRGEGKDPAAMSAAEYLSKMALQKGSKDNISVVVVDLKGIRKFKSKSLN", "assay": "Ser/Thr phosphatase assay at […] compound; weaker than on ABI1"}, "ABI1 [3]": {"biological_target": "T1, ABI1", "assay": "Ser/Thr phosphatase assay, single dose […]", "design": "recombinant His- or GST-tagged ABI1"}}}
{"compound": "COc1cccc(-n2cc(C(=O)Nc3cc(C)ccc3OC)c3ccccc3c2=O)c1", "note": "[ZINC09438755]", "values": [{"measurement": "Ser/Thr phosphatase assay, single dose 100 μM", "setting": "ABI1 [1]", "value": "Only two molecules ZINC33009768 and ZINC09438755 were found to have significant inhibitory activity"}]}
{"compound": "COC(=O)c1ccccc1NC(=O)Nc1cc(NC(=O)c2ccc(F)cc2)ccc1N1CCCC1", "note": "[ZINC33009768]", "values": [{"measurement": "Ser/Thr phosphatase assay, single dose 100 μM", "setting": "ABI1 [1]", "value": "Only two molecules ZINC33009768 and ZINC09438755 were found to have significant inhibitory activity"}]}
{"compound": "NCCOc1cc(C(=O)Nc2cc(OCCN)c3ccccc3n2)nc(C(=O)Nc2cc(OCCN)c3ccccc3n2)c1", "note": "[ZINC59151964, 4-(2-aminoethoxy)-N2,N6-bis[4-(2-aminoethoxy)-2-quinolinyl]-2,6-pyridinedicarboxamide]", "values": [{"measurement": "IC50", "setting": "ABI1 [2]", "value": "54 ± 8", "unit": "µM"}, {"measurement": "Ser/Thr phosphatase assay at 100 μM compound; weaker than on ABI1", "setting": "ABI2", "value": "ZINC59151964 is more efficient against ABI1 than ABI2"}]}
{"compound": "ZINC04545840", "values": [{"measurement": "% inhibition at 100 μM", "setting": "ABI1 [3]", "value": 42.6}]}
